Test results taken from patent US8883504B2, “Cell differentiation suppressing agent, method of culturing cells using the same, culture solution, and cultured cell line” (Asahi Kasei Kabushiki Kaisha, priority 2003, dated 2014).

Columns and labels:
Assay type in all cases: cell-based, mouse
[1] = tested on: SSEA-1 antigen; assay: Evaluation of the expression level of SSEA-1 antigen 1 (flow cytometry); details: D3ES cells, 7 days, FIG. 8
Method: For the D3ES cells prepared by the method described in (3) preparation of a mouse ES cell of Example 1, 8×10^4 cells were seeded in a 10 cm-diameter cell culture dish coated previously with a 0.1% aqueous gelatin solution to make 10 mL of the ES cell assay medium. 1 mL of the differentiation inhibiting agent A to F, which were dissolved in dimethylsulfoxide (DMSO) or culture medium or their mixture to make 40 μg/mL per each dish, or ESGRO, which was adjusted to make 10^4 unit/mL, was added, and culturing was carried out at 37° C. in 5% […] incubator for 7 days. To the culture medium was added DMSO to make the final concentration 0.1% or lower.
The cells cultured in (1) ES cell differentiation inhibition assay 2 as described above were washed twice with PBS, and were removed from the dish with a cell scraper. 300 μL of Hanks balanced salt solution (HBSS, Invitrogen Corp. made) containing 2% FBS was added to give 6×10^5 cells. 30 μL of MX-SSEA-1 antibody (Kyowa Medex Corp. made) diluted 50 folds with HBSS was added, and left stand for 40 minutes on ice. […] The sample used for flow cytometry was measured after passed through a nylon mesh with a 100 μm pore size to eliminate a coagulated mass. […]

[2] = tested on: STAT3; assay: STAT3 activation assay 1 (pSTAT3-TA-Luc luciferase reporter); details: D3ES cells, agent 0.4 to 40 μg/mL or ESGRO 10 to 10,000 unit/mL, 6 to 24 hours, FIG. 5
Method: For the D3ES cells prepared by the method described in (3) preparation of a mouse ES cell of Example 1, 1×10^5 cells in 500 μL ES medium were seeded in a well of a 24-well cell culture dish (Falcon Corp. made, Cat No. 3047, USA) coated previously with a 0.1% aqueous gelatin solution, followed by culturing at 37° C. in 5% CO2 incubator for 12 hours to 24 hours. Next, by using LipofectAMINE 2000 (Invitrogen Corp. made, USA) by a protocol attached to the product, 0.9 μg per 1 well of pSTAT3-TA-Luc or pTA-Luc vector (Clontech Corp. made, USA) was transfected into the ES cells. In addition, 0.1 μg of an internal control, pRL-TK vector (Promega Corp. made, USA) was transfected at the same time for each well. Following culturing at 37° C. in 5% CO2 incubator for 4 hours, the medium was sucked, and the cells were washed twice with PBS and, then, a 500 μL-ES assay medium was added to each well. […] Next, by using PicaGene Dual SeaPansy (Toyo Ink made, Japan) by the attached protocol, a luminescence signal generated by a luciferase reporter enzyme of each cell was measured.

[3] = tested on: STAT3; assay: STAT3 activation assay 2 (pSTAT3-TA-Luc luciferase reporter); details: D3ES cells, agent 0.4 to 40 μg/mL or ESGRO 10 to 10,000 unit/mL, 6 to 24 hours, FIG. 12
Method: For the D3ES cells prepared by the method described in (3) preparation of the ES cell of Example 1, 1×10^5 cells were seeded on a 24-well cell culture dish (Falcon, Cat. No. 3047, USA) coated previously with a 0.1% aqueous gelatin solution to make the ES cell medium in 500 μL per 1 well followed by culturing at 37° C. in 5% CO2 incubator for 12 hours to 24 hours. Next, by using LipofectAMINE 2000 (Invitrogen Corp. made, USA) by a protocol attached to the product, 0.9 μg/well of pSTAT3-TA-Luc or pTA-Luc vector (Clontech Corp. made, USA) was transfected into the ES cells. On the other hand, 0.1 μg of the internal control, pRL-TK vector (Promega Corp. made, USA) was transfected at the same time for each well. Following culturing at 37° C. in 5% CO2 incubator for 4 hours, the medium was sucked and washed twice with PBS and, then, the 500 μL-ES assay medium was added to each well. […] Next, by using PicaGene Dual SeaPansy (Toyo Ink, Japan) by the attached protocol, the luminescence signal generated by the luciferase reporter enzyme of each cell was measured.

SMILES: CC1(C)Cc2ccccc2C(=C(N=Nc2cccc(Cl)c2)C(N)=O)N1 [C, 2-(3-chloro-phenylazo)-2-(3,3-dimethyl-3,4-dihydro-2H-isoquinoline-1-ylidene)-acetamide]
- average fluorescence intensity per 1 cell (SSEA-1 antigen expression intensity per 1 cell) in comparison with medium without agent [1]: significantly high

SMILES: CC1(C)Cc2ccccc2C(=C(N=Nc2cccc([N+](=O)[O-])c2)C(N)=O)N1 [E, 2-(3,3-dimethyl-3,4-dihydro-2H-isoquinoline-1-ylidene)-2-(3-nitro-phenylazo)-acetamide]
- average fluorescence intensity per 1 cell (SSEA-1 antigen expression intensity per 1 cell) in comparison with medium without agent [1]: significantly high

SMILES: CC(=O)c1ccc(/N=N/C(C(N)=O)=C2/NC(C)(C)Cc3ccccc32)cc1 [compound B, 2-(4-acetyl-phenylazo)-2-(3,3-dimethyl-3,4-dihydro-2H-isoquinoline-1-ylidene)-acetamide]
- expression of the luciferase reporter enzyme by pSTAT3-TA-Luc [2]: did not induce the expression of the reporter enzyme
- expression of the luciferase reporter enzyme by pSTAT3-TA-Luc [3]: did not induce the expression of the reporter enzyme
